According to patent US20070281992A1, “COMBINATION OF GYRASE B INHIBITORS AND PROTEIN SYNTHESIS INHIBITORS AND USES THEREOF” (priority 2006, published 2007):
Like-named read-outs stand apart in the source and are kept apart here. One block for each compound: values may come before it.

Legend:
[1] = system: Methicillin-Resistant Staphylococcus aureus Isolates; experiment: MIC assay (NCCLS broth dilution), MRSA clinical isolates; type: cell-based; settings: for MIC Range / MIC50 / MIC90: 52 MRSA isolates, combinations at 2.5:1, given as NB/partner; for MIC / MIC50 / MIC90: Staphylococcus aureus; for MIC: read-out: Minimal Inhibitory Concentration
Protocol: (§1) Antibiotics: novobiocin, tetracycline, minocycline, oxacillin, and vancomycin were all purchased from Sigma-Aldrich. Linezolid was obtained from Pfizer, Inc. Novobiocin/tetracycline and novobiocin/minocycline were tested in a 2.5:1 ratio to mimic the serum levels. (Vavra, J. J., 1967, Development of resistance to novobiocin, tetracycline, and novobiocin-tetracycline combinations in Staphylococcus aureus populations, J. Bacteriol 93(3):801). Compounds were tested across a concentration range consisting of 11 two-fold serial dilutions of test agent.
(§2) Stock solutions were prepared in sterile deionized water; novobiocin stock concentration was 1600 μg/mL and all other drugs stock solutions were prepared at 640 μg/mL. The stock solutions were allowed to sit at room temperature for one hour to auto-sterilize prior to use in the test. All compounds were in solution in water. The control agent was vancomycin hydrochloride, Sigma Chemical Lot # 015K0825.
(§3) The test organisms for the assay were 52 MSSA, 52 MRSA, 8 VISA, 7 VISE, and 3 LRSA isolates. Quality control strains included Staphylococcus aureus 0100 (ATCC 29213) and Enterococcus faecalis (ATCC 29212).
(§4) The MIC assay was performed according to published NCCLS guidelines. (National Committee for Clinical Laboratory Standards, Methods for Dilution Antimicrobial Susceptibility Tests for Bacteria that Grow Aerobically; Approved Standard-Sixth Edition, NCCLS Document M7-A6 [ISBN 1-56238-486-4], NCCLS, 940 West Valley Road, Suite 1400, Wayne, Pa. 19087-1898 USA, 2003). The test medium was Mueller Hinton II Broth for all organisms.

[2] = system: Staphylococcus aureus 0100 (ATCC 29213); experiment: MIC assay, quality control strain S. aureus ATCC 29213; type: cell-based; settings: ATCC29213, S. aureus ATCC 29213, repeat runs 22FEB06-09MAR06, combinations at 2.5:1, read-out: Minimal Inhibitory Concentration, quality control
Protocol: as §1, §2, §3, §4

MIC Range [1]: .06 to .16 µg/mL
MIC ([1]; MRSA isolate 757, 24FEB06): 8 µg/mL
MIC ([1]; MRSA isolate 758, 03MAR06): 0.12 µg/mL
MIC ([1]; MRSA isolate 758, 24FEB06): 0.12 µg/mL
MIC ([1]; MRSA isolate 760, 03MAR06): 0.12 µg/mL
MIC ([1]; MRSA isolate 760, 24FEB06): 0.12 µg/mL
MIC ([1]; MRSA isolate 763, 22FEB06): 0.12 µg/mL
MIC ([1]; MRSA isolate 765, 22FEB06): 0.06 µg/mL
MIC ([1]; MRSA isolate 766, 22FEB06): 0.12 µg/mL
MIC ([1]; MRSA isolate 767, 22FEB06): 0.12 µg/mL
MIC ([1]; MRSA isolate 768, 22FEB06): 0.06 µg/mL
MIC ([1]; MRSA isolate 769, 22FEB06): 0.12 µg/mL
MIC ([1]; MRSA isolate 770, 22FEB06): 0.12 µg/mL
MIC ([1]; MRSA isolate 771, 22FEB06): 0.12 µg/mL
MIC ([1]; MRSA isolate 772, 22FEB06): 0.12 µg/mL
MIC ([1]; MRSA isolate 773, 24FEB06): 0.12 µg/mL
MIC ([1]; MRSA isolate 774, 24FEB06): 0.12 µg/mL
MIC ([1]; MRSA isolate 775, 24FEB06): 0.12 µg/mL
MIC ([1]; MRSA isolate 776, 24FEB06): 0.12 µg/mL
MIC ([1]; MRSA isolate 777, 24FEB06): 0.12 µg/mL
MIC ([1]; MRSA isolate 778, 24FEB06): 0.06 µg/mL
MIC ([1]; MRSA isolate 886, 24FEB06): 0.12 µg/mL
MIC ([1]; MRSA isolate 887, 24FEB06): 0.12 µg/mL
MIC ([1]; MRSA isolate 888, 24FEB06): 0.12 µg/mL
MIC ([1]; MRSA isolate 889, 24FEB06): 0.12 µg/mL
MIC ([1]; MRSA isolate 1004, 24FEB06): 0.12 µg/mL
MIC ([1]; MRSA isolate 1010, 22FEB06): 0.12 µg/mL
MIC ([1]; MRSA isolate 1012, 22FEB06): 0.12 µg/mL
MIC ([1]; MRSA isolate 1013, 22FEB06): 0.12 µg/mL
MIC ([1]; MRSA isolate 1014, 22FEB06): 0.12 µg/mL
MIC ([1]; MRSA isolate 1015, 22FEB06): 0.12 µg/mL
MIC ([1]; MRSA isolate 1016, 22FEB06): 0.12 µg/mL
MIC ([1]; MRSA isolate 1017, 22FEB06): 0.12 µg/mL
MIC ([1]; MRSA isolate 1021, 22FEB06): 0.12 µg/mL
MIC ([1]; MRSA isolate 1022, 22FEB06): 0.12 µg/mL
MIC ([1]; MRSA isolate 1023, 22FEB06): 0.12 µg/mL
MIC ([1]; MRSA isolate 1024, 22FEB06): 0.12 µg/mL
MIC ([1]; MRSA isolate 1025, 22FEB06): 0.12 µg/mL
MIC ([1]; MRSA isolate 1135, 22FEB06): 0.12 µg/mL
MIC ([1]; MRSA isolate 1136, 22FEB06): 0.12 µg/mL
MIC ([1]; MRSA isolate 1137, 22FEB06): 0.12 µg/mL
MIC ([1]; MRSA isolate 1138, 22FEB06): 0.12 µg/mL
MIC ([1]; MRSA isolate 1222, 03MAR06): 0.06 µg/mL
MIC ([1]; MRSA isolate 1222, 24FEB06): 0.12 µg/mL
MIC ([1]; MRSA isolate 1653, 03MAR06): 0.06 µg/mL
MIC ([1]; MRSA isolate 1658, 03MAR06): 0.06 µg/mL
MIC ([1]; MRSA isolate 1659, 03MAR06): 0.06 µg/mL
MIC ([1]; MRSA isolate 1661, 03MAR06): 0.12 µg/mL
MIC ([1]; MRSA isolate 1729, 03MAR06): 16 µg/mL
MIC ([1]; MRSA isolate 1730, 24FEB06): 0.12 µg/mL
MIC ([1]; MRSA isolate 2009, 24FEB06): 1 µg/mL
MIC ([1]; MRSA isolate 2010, 24FEB06): 0.12 µg/mL
MIC ([1]; MRSA isolate 2011, 24FEB06): 0.12 µg/mL
MIC50 [1]: 0.12 µg/mL
MIC90 [1]: 0.12 µg/mL
MIC [2]: 0.12 µg/mL
Compound: CN(C)c1ccc(O)c2c1C[C@H]1C[C@H]3[C@H](N(C)C)C(O)=C(C(N)=O)C(=O)[C@@]3(O)C(O)=C1C2=O [MI, minocycline]

MIC Range [1]: ≦.04-.62 μg/ml
MIC ([1]; MRSA isolate 757, 24FEB06): 0.31 µg/mL
MIC ([1]; MRSA isolate 758, 03MAR06): 0.08 µg/mL
MIC ([1]; MRSA isolate 758, 24FEB06): 0.15 µg/mL
MIC ([1]; MRSA isolate 760, 03MAR06): 0.08 µg/mL
MIC ([1]; MRSA isolate 760, 24FEB06): 0.15 µg/mL
MIC ([1]; MRSA isolate 763, 22FEB06): 0.08 µg/mL
MIC ([1]; MRSA isolate 765, 22FEB06): 0.15 µg/mL
MIC ([1]; MRSA isolate 766, 22FEB06): 0.08 µg/mL
MIC ([1]; MRSA isolate 767, 22FEB06): 0.15 µg/mL
MIC ([1]; MRSA isolate 768, 22FEB06): 0.15 µg/mL
MIC ([1]; MRSA isolate 769, 22FEB06): 0.15 µg/mL
MIC ([1]; MRSA isolate 770, 22FEB06): ≤ 0.04 µg/mL
MIC ([1]; MRSA isolate 771, 22FEB06): 0.08 µg/mL
MIC ([1]; MRSA isolate 772, 22FEB06): 0.15 µg/mL
MIC ([1]; MRSA isolate 773, 24FEB06): 0.31 µg/mL
MIC ([1]; MRSA isolate 774, 24FEB06): 0.31 µg/mL
MIC ([1]; MRSA isolate 775, 24FEB06): 0.15 µg/mL
MIC ([1]; MRSA isolate 776, 24FEB06): 0.15 µg/mL
MIC ([1]; MRSA isolate 777, 24FEB06): ≤ 0.04 µg/mL
MIC ([1]; MRSA isolate 778, 24FEB06): ≤ 0.04 µg/mL
MIC ([1]; MRSA isolate 886, 24FEB06): 0.15 µg/mL
MIC ([1]; MRSA isolate 887, 24FEB06): 0.08 µg/mL
MIC ([1]; MRSA isolate 888, 24FEB06): 0.15 µg/mL
MIC ([1]; MRSA isolate 889, 24FEB06): 0.15 µg/mL
MIC ([1]; MRSA isolate 1004, 24FEB06): 0.31 µg/mL
MIC ([1]; MRSA isolate 1010, 22FEB06): 0.31 µg/mL
MIC ([1]; MRSA isolate 1012, 22FEB06): 0.31 µg/mL
MIC ([1]; MRSA isolate 1013, 22FEB06): 0.31 µg/mL
MIC ([1]; MRSA isolate 1014, 22FEB06): 0.15 µg/mL
MIC ([1]; MRSA isolate 1015, 22FEB06): 0.08 µg/mL
MIC ([1]; MRSA isolate 1016, 22FEB06): 0.31 µg/mL
MIC ([1]; MRSA isolate 1017, 22FEB06): 0.08 µg/mL
MIC ([1]; MRSA isolate 1021, 22FEB06): 0.15 µg/mL
MIC ([1]; MRSA isolate 1022, 22FEB06): 0.31 µg/mL
MIC ([1]; MRSA isolate 1023, 22FEB06): 0.15 µg/mL
MIC ([1]; MRSA isolate 1024, 22FEB06): 0.15 µg/mL
MIC ([1]; MRSA isolate 1025, 22FEB06): 0.15 µg/mL
MIC ([1]; MRSA isolate 1135, 22FEB06): 0.31 µg/mL
MIC ([1]; MRSA isolate 1136, 22FEB06): 0.31 µg/mL
MIC ([1]; MRSA isolate 1137, 22FEB06): 0.62 µg/mL
MIC ([1]; MRSA isolate 1138, 22FEB06): 0.15 µg/mL
MIC ([1]; MRSA isolate 1222, 03MAR06): 0.08 µg/mL
MIC ([1]; MRSA isolate 1222, 24FEB06): 0.08 µg/mL
MIC ([1]; MRSA isolate 1653, 03MAR06): ≤ 0.04 µg/mL
MIC ([1]; MRSA isolate 1658, 03MAR06): 0.08 µg/mL
MIC ([1]; MRSA isolate 1659, 03MAR06): 0.08 µg/mL
MIC ([1]; MRSA isolate 1661, 03MAR06): ≤ 0.04 µg/mL
MIC ([1]; MRSA isolate 1729, 03MAR06): 0.08 µg/mL
MIC ([1]; MRSA isolate 1730, 24FEB06): 0.15 µg/mL
MIC ([1]; MRSA isolate 2009, 24FEB06): ≤ 0.04 µg/mL
MIC ([1]; MRSA isolate 2010, 24FEB06): 0.15 µg/mL
MIC ([1]; MRSA isolate 2011, 24FEB06): 0.15 µg/mL
MIC50 [1]: 0.15 µg/mL
MIC90 [1]: 0.312 µg/mL
Compound: CO[C@@H]1[C@@H](OC(N)=O)[C@@H](O)[C@H](Oc2ccc3c(O)c(NC(=O)c4ccc(O)c(CC=C(C)C)c4)c(=O)oc3c2C)OC1(C)C [NB, novobiocin]
